ChEMBL document CHEMBL1201862, “PubChem BioAssay data set” (2004)
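Method: 48-hour compound exposure of cells in 96-well plates, five concentrations, linear interpolation of endpoints. Here, GI50 denotes the concentration required for 50% inhibition of growth.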 Calls of active or inactive are those of the source. Cut-off read from the data, not from the text of the source: active = GI50 up to about 1.1 µM and inactive = higher.

Tests used:
Assay in all cases: NCI anticancer screen, dose series, 48 h
SR = system: SR
OVCAR-8 = system: OVCAR-8
UACC-62 = system: UACC-62
SK-OV-3 = system: SK-OV-3
HOP-62 = system: HOP-62
K562 = system: K562
ACHN = system: ACHN
SNB-75 = system: SNB-75
RPMI-8226 = system: RPMI-8226
SF-268 = system: SF-268
SF-539 = system: SF-539
NCI/ADR-RES = system: NCI/ADR-RES
MCF7 = system: MCF7
SK-MEL-28 = system: SK-MEL-28
SN12C = system: SN12C
NCI-H23 = system: NCI-H23
A549 = system: A549
NCI-H522 = system: NCI-H522
SW-620 = system: SW-620
MDA-MB-231 = system: MDA-MB-231

Compound	GI50 (SR)	GI50 (OVCAR-8)	GI50 (UACC-62)	GI50 (SK-OV-3)	GI50 (HOP-62)	GI50 (K562)	GI50 (ACHN)	GI50 (SNB-75)	GI50 (RPMI-8226)	GI50 (SF-268)	GI50 (SF-539)	GI50 (NCI/ADR-RES)	GI50 (MCF7)	GI50 (SK-MEL-28)	GI50 (SN12C)	GI50 (NCI-H23)	GI50 (A549)	GI50 (NCI-H522)	GI50 (SW-620)	GI50 (MDA-MB-231)
COc1ccc2c(c1)CCCc1c-2nc2ccccc2c1N	2.57 µM (inactive)	12.9 µM (inactive)	12.3 µM (inactive)	10.4 µM (inactive)	1.52 µM (inactive)	5.14 µM (inactive)	13.6 µM (inactive)	10.7 µM (inactive)	5.87 µM (inactive)	15.3 µM (inactive)	12.4 µM (inactive)	12.9 µM (inactive)	11.2 µM (inactive)	10.8 µM (inactive)	4.38 µM (inactive)	15.4 µM (inactive)	12.9 µM (inactive)	13.6 µM (inactive)	10.7 µM (inactive)	5.7 µM (inactive)
C[N+](C)(N)c1nc(N)c(C#N)c(C#N)c1C#N	> 10 µM (inactive)	> 10 µM (inactive)	> 10 µM (inactive)	> 10 µM (inactive)	> 10 µM (inactive)	7.01 µM (inactive)	> 10 µM (inactive)	> 10 µM (inactive)	> 10 µM (inactive)	> 10 µM (inactive)	> 10 µM (inactive)	> 10 µM (inactive)	> 10 µM (inactive)	> 10 µM (inactive)	> 10 µM (inactive)	> 10 µM (inactive)	> 10 µM (inactive)	> 10 µM (inactive)	> 10 µM (inactive)	> 10 µM (inactive)
N=C(N)NS(=O)(=O)c1ccc(Nc2c3ccccc3nc3c(C(=O)NCCO)cccc23)cc1	0.136 µM (active)	0.185 µM (active)	0.167 µM (active)	0.236 µM (active)	0.186 µM (active)	0.216 µM (active)	0.219 µM (active)	22.6 µM (inactive)	0.162 µM (active)	0.171 µM (active)	0.193 µM (active)	0.296 µM (active)	0.0282 µM (active)	0.248 µM (active)	0.202 µM (active)	0.167 µM (active)	0.157 µM (active)	0.158 µM (active)	0.188 µM (active)	0.207 µM (active)
Cc1ccc(C(=O)N/N=C(\N=N\c2cccc([N+](=O)[O-])c2)c2ccc(N(CCC#N)CCC#N)cc2C)cc1	21.6 µM (inactive)	23.2 µM (inactive)	26.1 µM (inactive)	36.8 µM (inactive)	25.4 µM (inactive)	22.8 µM (inactive)	42.9 µM (inactive)	21.1 µM (inactive)	13 µM (inactive)	33.6 µM (inactive)	4.58 µM (inactive)	34.8 µM (inactive)	13.2 µM (inactive)	> 46.8 µM (inactive)	46.6 µM (inactive)	20.5 µM (inactive)	31.9 µM (inactive)	20.4 µM (inactive)	38.7 µM (inactive)	30.5 µM (inactive)
NC(=O)CC(/N=C1\C(=O)OC(C(O)CO)\C1=N/C(CC(N)=O)C(=O)O)C(=O)O (stereo not given)	> 100 µM (inactive)	> 100 µM (inactive)	> 100 µM (inactive)	> 100 µM (inactive)	> 100 µM (inactive)	> 100 µM (inactive)	> 100 µM (inactive)	> 100 µM (inactive)	> 100 µM (inactive)	> 100 µM (inactive)	> 100 µM (inactive)	> 100 µM (inactive)	> 100 µM (inactive)	> 100 µM (inactive)	> 100 µM (inactive)	> 100 µM (inactive)	> 100 µM (inactive)	> 100 µM (inactive)	> 100 µM (inactive)	> 100 µM (inactive)
O=C(NCCNCCCNC(=O)c1cc(-c2ccccc2)nc2ccccc12)c1cccc(OCc2ccccc2)c1OCc1ccccc1	0.889 µM (active)	1.71 µM (inactive)	1.93 µM (inactive)	1.71 µM (inactive)	1.65 µM (inactive)	1.74 µM (inactive)	1.73 µM (inactive)	1.87 µM (inactive)	2.48 µM (inactive)	1.88 µM (inactive)	1.77 µM (inactive)	1.87 µM (inactive)	1.66 µM (inactive)	1.81 µM (inactive)	1.77 µM (inactive)	1.83 µM (inactive)	1.74 µM (inactive)	1.73 µM (inactive)	1.77 µM (inactive)	1.71 µM (inactive)
